In the first assay the test system is purified human Hsp90. Briefly: Binding Assay: fluorescence polarization with BODIPY-labeled geldanamycin. The following applies: 5 μM compound, BODIPY-GM 10 nM, Hsp90 30 nM. Here is the method: Compound binding to purified Hsp90 was monitored using BODIPY-labeled geldanamycin (BODIPY-GM) in a fluorescence polarization assay adapted from Kim et al. (Journal of Biomolecular Screening 2004, 9(5):375-381). Compound dilutions (in 100% DMSO) were added to black-bottom 96-well plates (Greiner; 2% DMSO final), and equal volumes of BODIPY-GM (10 nM final) and purified human Hsp90 (Stressgen, SPP-770; 30 nM final) in assay buffer (20 mM HEPES-KOH pH 7.3, 50 mM KCl, 5 mM MgCl2, 20 mM Na2MoO4, 0.01% NP-40, 0.1 mg/mL bovine gamma globulin [Invitrogen, P2045], 2 mM DTT) were added sequentially to yield a final volume of 50 microliters. Plates were incubated overnight at room temperature. Parallel and perpendicular fluorescence measurements were read (LJL BioSystems Analyst AD plate reader) with excitation/emission wavelengths of 485/530 nm. Background fluorescence (buffer only) was subtracted, and fluorescence polarization (FP) values, expressed in mP units, were calculated from parallel and perpendicular fluorescence readings as follows: FP=(parallel−perpendicular)/(parallel+perpendicular)*1000
Percent inhibition was calculated by normalizing the FP values to those obtained in parallel reactions containing DMSO and subtracting these normalized values from 100%. Intrinsic compound fluorescence was independently monitored, and FP data points confounded by compound fluorescence were excluded from the analysis.
For the compound `CCOC(=O)[C@@H]1C[C@H](CCn2cnc(N)c3nc(Sc4cc5c(cc4Br)OCO5)nc2-3)CCN1C(=O)OC(C)(C)C` (relative stereo) [Example 423, 1-tert-Butyl 2-ethyl cis-4-(2-{6-amino-8-[(6-bromo-1,3-benzodioxol-5-yl)thio]-3H-purin-3-yl}ethyl)piperidine-1,2-dicarboxylate], the “% Inhibition at 5 μM Compound Concentration” value (from here on “% Inhibition”) is 0%.
As to `CC(C)[C@@H]1C[C@H](CCn2cnc(N)c3nc(Sc4cc5c(cc4Br)OCO5)nc2-3)CCN1C(=O)OC(C)(C)C` (relative stereo) [Example 430, tert-Butyl cis-4-(2-{6-amino-8-[(6-bromo-1,3-benzodioxol-5-yl)thio]-3H-purin-3-yl}ethyl)-2-isopropylpiperidine-1-carboxylate], the “% Inhibition” value was 15%.
As to `CCOC(=O)[C@@H]1C[C@H](CCn2cnc(N)c3nc(Sc4cc5c(cc4Br)OCO5)nc2-3)CCN1` (relative stereo) [Example 482, Ethyl cis-4-(2-{6-amino-8-[(6-bromo-1,3-benzodioxol-5-yl)thio]-3 H-purin-3-yl}ethyl)piperidine-2-carboxylate], the “% Inhibition” value is 0.0%.
Regarding `COc1ccc(OC)c(Sc2nc3c(N)ncnc3n2CCCc2ccccc2)c1` [Example 3, 8-(2,5-Dimethoxy-phenylsulfanyl)-9-(3-phenyl-propyl)-9H-purin-6-ylamine], the “% Inhibition” value came out at 36%.
The same measure, in the same setting: the figure for `Nc1ncnc2c1nc(Sc1ccc3c(c1)OCO3)n2CCc1ccccc1` [Example 4, 8-(Benzo[1,3]dioxol-5-ylsulfanyl)-9-phenethyl-9H-purin-6-ylamine] is 75%.

The same assay, now with this note: BODIPY-GM 10 nM, Hsp90 30 nM.
As to `CCOC(=O)[C@@H]1C[C@H](CCn2c(Sc3cc4c(cc3Br)OCO4)nc3c(N)ncnc32)CCN1C(=O)OC(C)(C)C` (relative stereo) [Example 422, 1-tert-Butyl 2-ethyl cis-4-(2-{6-amino-8-[(6-bromo-1,3-benzodioxol-5-yl)thio]-9H-purin-9-yl}ethyl)piperidine-1,2-dicarboxylate], the IC50 is above 3000 nM.
As to `CC(C)[C@H]1C[C@H](CCn2c(Sc3cc4c(cc3Br)OCO4)nc3c(N)ncnc32)CCN1C(=O)OC(C)(C)C` (relative stereo) [Example 428, tert-Butyl trans-4-(2-{6-amino-8-[(6-bromo-1,3-benzodioxol-5-yl)thio]-9H-purin-9-yl}ethyl)-2-isopropylpiperidine-1-carboxylate], the IC50 is above 8000 nM.
As for `CC(C)[C@@H]1C[C@H](CCn2c(Sc3cc4c(cc3Br)OCO4)nc3c(N)ncnc32)CCN1C(=O)OC(C)(C)C` (relative stereo) [Example 429, tert-Butyl cis-4-(2-{6-amino-8-[(6-bromo-1,3-benzodioxol-5-yl)thio]-9H-purin-9-yl}ethyl)-2-isopropylpiperidine-1-carboxylate], the IC50 stood at 3800 nM. This lies in the single-digit micromolar range.
Regarding `CC(C)[C@H]1C[C@H](CCn2c(Sc3cc4c(cc3Br)OCO4)nc3c(N)ncnc32)CCN1` (relative stereo) [Example 479, 8-[(6-bromo-1,3-benzodioxol-5-yl)thio]-9-{2-[trans-2-isopropylpiperidin-4-yl]ethyl}-9 H-purin-6-amine], the IC50 amounted to 199 nM.
In turn, `CC(C)[C@@H]1C[C@H](CCn2c(Sc3cc4c(cc3Br)OCO4)nc3c(N)ncnc32)CCN1` (relative stereo) [Example 480, 8-[(6-bromo-1,3-benzodioxol-5-yl)thio]-9-{2-[cis-2-isopropylpiperidin-4-yl]ethyl}-9 H-purin-6-amine] displayed an IC50 of 160 nM.
In the case of `COc1ccc(OC)c(Sc2nc3c(N)ncnc3n2CCc2ccccc2)c1` [Example 1, 8-(2,5-Dimethoxy-phenylsulfanyl)-9-phenethyl-9H-purin-6-ylamine], the IC50 stood at 340 nM. This IC50 is about 2.1-fold higher than that of the compound before.
In the case of `COc1ccc(OC)c(Sc2nc3c(N)ncn(CCc4ccccc4)c-3n2)c1` [Example 2, 8-(2,5-dimethoxy-phenylsulfanyl)-3-phenethyl-3H-purin-6-ylamine], the IC50 is 3470 nM.
As to `Nc1ncnc2c1nc(Sc1ccc3c(c1)OCO3)n2CCc1ccccc1` [Example 4, 8-(Benzo[1,3]dioxol-5-ylsulfanyl)-9-phenethyl-9H-purin-6-ylamine], the half-maximal inhibitory concentration (IC50) came out at 650 nM.

Source of the values: patent US7595401B2, “Therapeutic compounds and their use in cancer” (Myriad Pharmaceuticals, Inc., priority 2006, dated 2009).
